These compounds were tested against T1, recombinant N-terminal GST-tagged human Rho kinase 2 (ROCK2, amino acids 1-552) (Homo sapiens, UniProt O75116) (assay: In vitro Rho kinase assay (luciferase-based ATP consumption), ROCK2). Settings: ROCK2 IC50, recombinant GST-tagged human ROCK2, luciferase-based ATP consumption.
T1 construct: ROCK2, amino acids 1-552; purchased Invitrogen Inc. PV3759
T1 sequence (O75116 1-552): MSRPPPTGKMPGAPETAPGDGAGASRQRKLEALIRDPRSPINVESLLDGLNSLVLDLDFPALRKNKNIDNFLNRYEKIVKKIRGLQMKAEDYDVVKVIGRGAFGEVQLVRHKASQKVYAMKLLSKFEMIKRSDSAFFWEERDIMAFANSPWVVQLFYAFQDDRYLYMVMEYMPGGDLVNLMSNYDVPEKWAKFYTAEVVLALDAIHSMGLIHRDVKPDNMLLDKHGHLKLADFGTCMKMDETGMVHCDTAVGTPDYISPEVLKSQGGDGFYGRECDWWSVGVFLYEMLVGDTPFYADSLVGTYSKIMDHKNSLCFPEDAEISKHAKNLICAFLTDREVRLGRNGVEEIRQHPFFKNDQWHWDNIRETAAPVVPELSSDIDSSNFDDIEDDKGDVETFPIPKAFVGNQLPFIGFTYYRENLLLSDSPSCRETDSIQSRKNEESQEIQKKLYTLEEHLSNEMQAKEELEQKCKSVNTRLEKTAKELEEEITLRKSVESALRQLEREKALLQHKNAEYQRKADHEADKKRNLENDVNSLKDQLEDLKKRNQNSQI
Type: biochemical
Method: In Vitro Rho Kinase Assay
Rho kinase biochemical assays described below depend on firefly luciferase-based, indirect measurement of total ATP consumption by the kinase following incubation with substrate and ATP. 25 μl of Rho kinase assay buffer (20 mM Tris-HCL [pH 7.5], 1 mM MgCl2, 0.4 mM CaCl2, 0.15 mM EGTA, 0.1 mg/ml bovine serum albumin) containing 0.82 μg/ml of recombinant N-terminal GST-tagged human Rho kinase 1 (ROCK1, amino acids 1-535, Invitrogen Inc., cat. #PV-3691) or recombinant N-terminal GST-tagged human Rho kinase 2 (ROCK2, amino acids 1-552, Invitrogen Inc., cat #PV3759), 100 μg/ml S6 peptide substrate (related to amino acids 218-249 of the human 40S ribosomal protein S6, and suitable for ROCK1 or ROCK2, e.g. Upstate/Millipore Inc., cat #12-420), and 3 µM ATP are dispensed to wells of a 384 multi-well opaque plate. The plate is centrifuged for 30 seconds at approximately 200×g. 240 nl of test compound in DMSO is dispensed to each well by passive pin transfer. The lag phase of this in vitro kinase reaction permits addition of compounds soon after the reaction initiates. The reaction is allowed to incubate at 30° C. for 2 hours. The assay plates are sealed and maintained in a humidified environment. After 2 hours, 25 μl of easylite protein kinase assay reagent (Perkin-Elmer, Inc.) is dispensed. After an additional 10 minute incubation at room temperature (about 22° C.), luminescence activity is measured on a Molecular Devices Analyst multi-mode plate reader or other suitable plate reader. Kinase inhibition results in less ATP consumption, and therefore increased luminescence signal. Negative control activity is measured with DMSO lacking any test compound. The positive control is 2-methyl-1-(4-methylisoquinolin-5-ylsulfonyl)perhydro-1,4-diazepine hydrochloride (aka H-1152P, HCl salt). Efficacy is measured as a percentage of positive control activity. […] In some cases, kinase reactions and compound testing are performed in 1536 multi-well plates under similar conditions, with assay volumes appropriately scaled. The designation NT means the cited example was not tested.
For `Cc1c(-c2ccnc(N)n2)sc2ccc(C(=O)NCc3ccccc3Cl)cc12` [Example 409, Cc1c(sc2ccc(cc12)C(═O)NCc3ccccc3Cl)-c4ccnc(N)n4], the IC50 was under 5 µM.

Same assay, conditions: recombinant GST-tagged human ROCK2, luciferase-based ATP consumption; read-out: ROCK2 IC50
`Cc1cccc(CNC(=O)c2ccc3sc(-c4ccnc(N)n4)c(C)c3c2)c1` [Example 375, Cc1cccc(CNC(═O)c2ccc3sc(c(C)c3c2)-c4ccnc(N)n4)c1] showed an IC50 of under 5 µM. `Cc1c(-c2ccnc(N)n2)sc2ccc(C(=O)N[C@@H](C)c3ccccc3)cc12` [Example 376, C[C@H](NC(═O)c1ccc2sc(c(C)c2c1)-c3ccnc(N)n3)c4ccccc4] was tested, and the IC50 was under 5 µM. In the case of `Cc1c(-c2ccnc(N)n2)sc2ccc(C(=O)N[C@H](C)c3ccccc3)cc12` [Example 377, C[C@@H](NC(═O)c1ccc2sc(c(C)c2c1)-c3ccnc(N)n3)c4ccccc4], the IC50 is reported as under 5 µM. `Cc1c(-c2ccnc(N)n2)sc2ccc(C(=O)NCCc3ccccc3)cc12` [Example 378, Cc1c(sc2ccc(cc12)C(═O)NCCc3ccccc3)-c4ccnc(N)n4] gave an IC50 of under 5 µM. With `Cc1ccccc1CNC(=O)c1ccc2sc(-c3ccnc(N)n3)c(C)c2c1` [Example 379, Cc1ccccc1CNC(═O)c2ccc3sc(c(C)c3c2)-c4ccnc(N)n4] the IC50 was under 5 µM. In the case of `Cc1ccc(CNC(=O)c2ccc3sc(-c4ccnc(N)n4)c(C)c3c2)cc1` [Example 380, Cc1ccc(CNC(═O)c2ccc3sc(c(C)c3c2)-c4ccnc(N)n4)cc1], the IC50 is reported as under 5 µM. `Cc1cnc(CNC(=O)c2ccc3sc(-c4ccnc(N)n4)c(C)c3c2)cn1` [Example 381, Cc1cnc(CNC(═O)c2ccc3sc(c(C)c3c2)-c4ccnc(N)n4)cn1] showed an IC50 of under 5 µM. Work on `Cc1c(-c2ccnc(N)n2)sc2ccc(C(=O)NCc3cccc(F)c3)cc12` [Example 382, Cc1c(sc2ccc(cc12)C(═O)NCc3cccc(F)c3)-c4ccnc(N)n4] yielded an IC50 of under 5 µM. `Cc1c(-c2ccnc(N)n2)sc2ccc(C(=O)NCc3ccc(F)cc3)cc12` [Example 383, Cc1c(sc2ccc(cc12)C(═O)NCc3ccc(F)cc3)-c4ccnc(N)n4] showed an IC50 of under 5 µM. `Cc1c(-c2ccnc(N)n2)sc2ccc(C(=O)NCc3ccccc3F)cc12` [Example 384, Cc1c(sc2ccc(cc12)C(═O)NCc3ccccc3F)-c4ccnc(N)n4] showed an IC50 of under 5 µM. Compound `Cc1c(-c2ccnc(N)n2)sc2ccc(C(=O)NCCCn3ccnc3)cc12` [Example 385, Cc1c(sc2ccc(cc12)C(═O)NCCCn3ccnc3)-c4ccnc(N)n4] has an IC50 of under 5 µM. In the case of `Cc1c(-c2ccnc(N)n2)sc2ccc(C(=O)NCCC3CCCN3C)cc12` (centres unmarked) [Example 386, CN1CCCC1CCNC(═O)c2ccc3sc(c(C)c3c2)-c4ccnc(N)n4], the IC50 is reported as under 5 µM. `Cc1c(-c2ccnc(N)n2)sc2ccc(C(=O)NCCN3CCCCC3)cc12` [Example 387, Cc1c(sc2ccc(cc12)C(═O)NCCN3CCCCC3)-c4ccnc(N)n4] gave an IC50 of under 5 µM. Compound `Cc1c(-c2ccnc(N)n2)sc2ccc(C(=O)NC(C)CCCC(C)C)cc12` (centres unmarked) [Example 388, CC(C)CCCC(C)NC(═O)c1ccc2sc(c(C)c2c1)-c3ccnc(N)n3] has an IC50 of over 5 µM. Compound `Cc1c(-c2ccnc(N)n2)sc2ccc(C(=O)NCCN3CCOCC3)cc12` [Example 389, Cc1c(sc2ccc(cc12)C(═O)NCCN3CCOCC3)-c4ccnc(N)n4] has an IC50 of under 5 µM. Compound `CCOC(=O)CC(C)NC(=O)c1ccc2sc(-c3ccnc(N)n3)c(C)c2c1` (centres unmarked) [Example 390, CCOC(═O)CC(C)NC(═O)c1ccc2sc(c(C)c2c1)-c3ccnc(N)n3] has an IC50 of under 5 µM. `Cc1c(-c2ccnc(N)n2)sc2ccc(C(=O)NC3CCc4ccccc43)cc12` (centres unmarked) [Example 391, Cc1c(sc2ccc(cc12)C(═O)NC3CCc4ccccc34)-c5ccnc(N)n5] showed an IC50 of under 5 µM. With `Cc1ccc(CCNC(=O)c2ccc3sc(-c4ccnc(N)n4)c(C)c3c2)cc1` [Example 392, Cc1ccc(CCNC(═O)c2ccc3sc(c(C)c3c2)-c4ccnc(N)n4)cc1] the IC50 was over 5 µM. With `Cc1ccc(C)c(CNC(=O)c2ccc3sc(-c4ccnc(N)n4)c(C)c3c2)c1` [Example 393, Cc1ccc(C)c(CNC(═O)c2ccc3sc(c(C)c3c2)-c4ccnc(N)n4)c1] the IC50 was under 5 µM. Compound `Cc1ccc([C@H](C)NC(=O)c2ccc3sc(-c4ccnc(N)n4)c(C)c3c2)cc1` [Example 394, C[C@H](NC(═O)c1ccc2sc(c(C)c2c1)-c3ccnc(N)n3)c4ccc(C)cc4] has an IC50 of over 5 µM. `Cc1ccc([C@@H](C)NC(=O)c2ccc3sc(-c4ccnc(N)n4)c(C)c3c2)cc1` [Example 395, C[C@@H](NC(═O)c1ccc2sc(c(C)c2c1)-c3ccnc(N)n3)c4ccc(C)cc4] was tested, and the IC50 was over 5 µM. `Cc1c(-c2ccnc(N)n2)sc2ccc(C(=O)NCC(C)c3ccccc3)cc12` (centres unmarked) [Example 396, CC(CNC(═O)c1ccc2sc(c(C)c2c1)-c3ccnc(N)n3)c4ccccc4] showed an IC50 of under 5 µM. Work on `Cc1c(-c2ccnc(N)n2)sc2ccc(C(=O)NCCCc3ccccc3)cc12` [Example 397, Cc1c(sc2ccc(cc12)C(═O)NCCCc3ccccc3)-c4ccnc(N)n4] yielded an IC50 of under 5 µM. Work on `Cc1ccc(CNC(=O)c2ccc3sc(-c4ccnc(N)n4)c(C)c3c2)cc1C` [Example 398, Cc1ccc(CNC(═O)c2ccc3sc(c(C)c3c2)-c4ccnc(N)n4)cc1C] yielded an IC50 of over 5 µM. `Cc1c(-c2ccnc(N)n2)sc2ccc(C(=O)NC(C)Cc3ccncc3)cc12` (centres unmarked) [Example 399, CC(Cc1ccncc1)NC(═O)c2ccc3sc(c(C)c3c2)-c4ccnc(N)n4] showed an IC50 of under 5 µM. Compound `Cc1c(-c2ccnc(N)n2)sc2ccc(C(=O)NCCc3ccc(O)cc3)cc12` [Example 400, Cc1c(sc2ccc(cc12)C(═O)NCCc3ccc(O)cc3)-c4ccnc(N)n4] has an IC50 of under 5 µM. `Cc1c(-c2ccnc(N)n2)sc2ccc(C(=O)NCCOc3ccccc3)cc12` [Example 401, Cc1c(sc2ccc(cc12)C(═O)NCCOc3ccccc3)-c4ccnc(N)n4] gave an IC50 of under 5 µM. For `COc1ccccc1CNC(=O)c1ccc2sc(-c3ccnc(N)n3)c(C)c2c1` [Example 402, COc1ccccc1CNC(═O)c2ccc3sc(c(C)c3c2)-c4ccnc(N)n4], the IC50 was under 5 µM. Work on `COc1ccc(CNC(=O)c2ccc3sc(-c4ccnc(N)n4)c(C)c3c2)cc1` [Example 403, COc1ccc(CNC(═O)c2ccc3sc(c(C)c3c2)-c4ccnc(N)n4)cc1] yielded an IC50 of under 5 µM. With `COc1cccc(CNC(=O)c2ccc3sc(-c4ccnc(N)n4)c(C)c3c2)c1` [Example 404, COc1cccc(CNC(═O)c2ccc3sc(c(C)c3c2)-c4ccnc(N)n4)c1] the IC50 was under 5 µM. `Cc1c(-c2ccnc(N)n2)sc2ccc(C(=O)NCCc3ccc(F)cc3)cc12` [Example 405, Cc1c(sc2ccc(cc12)C(═O)NCCc3ccc(F)cc3)-c4ccnc(N)n4] showed an IC50 of under 5 µM. Compound `Cc1c(-c2ccnc(N)n2)sc2ccc(C(=O)NCCc3ccccc3F)cc12` [Example 406, Cc1c(sc2ccc(cc12)C(═O)NCCc3ccccc3F)-c4ccnc(N)n4] has an IC50 of under 5 µM. With `Cc1c(-c2ccnc(N)n2)sc2ccc(C(=O)NCCc3cccc(F)c3)cc12` [Example 407, Cc1c(sc2ccc(cc12)C(═O)NCCc3cccc(F)c3)-c4ccnc(N)n4] the IC50 was under 5 µM. With `Cc1c(-c2ccnc(N)n2)sc2ccc(C(=O)NCc3cccc(Cl)c3)cc12` [Example 408, Cc1c(sc2ccc(cc12)C(═O)NCc3cccc(Cl)c3)-c4ccnc(N)n4] the IC50 was under 5 µM. With `Cc1c(-c2ccnc(N)n2)sc2ccc(C(=O)NCc3ccc(Cl)cc3)cc12` [Example 410, Cc1c(sc2ccc(cc12)C(═O)NCc3ccc(Cl)cc3)-c4ccnc(N)n4] the IC50 was under 5 µM. In the case of `Cc1c(-c2ccnc(N)n2)sc2ccc(C(=O)NCCCN3CCCC3=O)cc12` [Example 411, Cc1c(sc2ccc(cc12)C(═O)NCCCN3CCCC3═O)-c4ccnc(N)n4], the IC50 is reported as over 5 µM. In the case of `Cc1c(-c2ccnc(N)n2)sc2ccc(C(=O)NCc3ccc(F)cc3F)cc12` [Example 412, Cc1c(sc2ccc(cc12)C(═O)NCc3ccc(F)cc3F)-c4ccnc(N)n4], the IC50 is reported as under 5 µM.

From patent publication US20080021026A1, “BENZOTHIOPHENE INHIBITORS OF RHO KINASE” (priority 2006, published 2008)
